Assay results as given in US20220202882A1, “EFFECT OF COMBINATION OF BIFIDOBACTERIUM AND BERBERINE ON PRE-DIABETES AND TYPE 2 DIABETES” (The Fourth Military Medical University, priority 2018, published 2022).
Structures can show the parent of a compound that is named as a salt.

Key:
[1] = tested on: pre-diabetic and type 2 diabetes mellitus patients; test: Clinical trial: fasting plasma glucose (FPG); format: in vivo, human; conditions: for Effect on fasting plasma glucose level (in words) / Post-treatment FPG - pre-treatment FPG, mean value: 16 weeks of treatment; for Effect on fasting plasma glucose level (in words): Kruskal-Wilcox test; for Post-treatment FPG - pre-treatment FPG, mean value / Post-treatment FPG, mean value / Pre-treatment FPG, mean value: FAS; for Post-treatment FPG, mean value: after 16 weeks of treatment; for Pre-treatment FPG, mean value: baseline before treatment
Procedure: From June 2015 to October 2018, a double-blind, randomized, and parallel-controlled trial, studying the effects of the combined use of Bifidobacterium and berberine on pre-diabetic and type 2 diabetes mellitus patients, was conducted in 10 research centers in Xi'an, Yan'an and Shangluo of Shaanxi province, etc., including the First Affiliated Hospital of the Fourth Military Medical University. 3) Diagnosed with impaired glucose tolerance or type 2 diabetes mellitus (5.6≤fasting plasma glucose (FPG)<8.0 mmol/L at V1 stage; 6.1≤fasting plasma glucose (FPG)<8.0<mmol/L or 7.8≤2-hour postprandial venous blood glucose (2 h-PPG)<17 mmol/L at V2 stage, please see V1 and V2 in Table 1 below); The trial included an enrollment stage of 2 weeks and a treatment stage of 16 weeks. After passing the first visit 1 (see V1 in Table 1), the subjects entered the enrollment stage, i.e., 2 weeks of lifestyle intervention, followed by a re-screening (see V2 in Table 1). The subjects were subjected to a 16-week course of treatment after passing the screening. See Table 1 for the detailed screening parameters. After the enrollment stage, the baseline data of the 300 successfully enrolled subjects were collected. Meanwhile, the subjects started to receive lifestyle guidance, and were randomly divided into four groups for 16 weeks of treatments. 1) Bifidobacterium group: the subjects were administered with Bifidobacterium capsules (Livzon Pharmaceutical Group Inc., batch no.: 20141013), 0.35 g/capsule, each capsule containing 50,000,000 viable bacteria (Bifidobacterium adolescentis DM8504), 2 capsules/time, 2 times/day, plus berberine placebo tablets (Northeast Pharma Group Shenyang First Pharma Co., Ltd., Lot no.: 20150101, containing 80.2% microcrystalline cellulose, 9.4% pregelatinized starch, 6.4% sodium carboxymethyl starch, 1% magnesium stearate, and 3% copovidone), 0.1 g/tablet, 5 tablets/time, 2 times/day. 2) Berberine group: the subjects were administered with berberine tablets (Northeast Pharma Group Shenyang First Pharma Co., Ltd., Lot no.: 130917, each tablet weighted 0.165 g and contained 0.1 g active berberine ingredient (berberine hydrochloride), with the same excipients as the placebo tablets), 5 tablets/time, 2 times/day, plus Bifidobacterium placebo capsules (Livzon Pharmaceutical Group Inc., Lot no.: 141001, specifically containing 0.348 g spray-dried lactose, and 0.002 g magnesium stearate), 0.35 g/capsule, 2 capsules/time, 2 times/day. 3) Combination Group: the subjects were administered with Bifidobacterium capsules, 0.35 g/capsule, each capsule containing 50,000,000 viable bacteria (B. adolescentis DM8504), 2 capsules/time, 2 times/day, plus berberine tablets, 0.1 g/tablet, each tablet containing 0.1 g active berberine ingredient (berberine hydrochloride), 5 tablets/time, 2 times/day. 4) Control group: the subjects were administered with Bifidobacteria placebo capsules, 0.35 g/capsule, 2 capsules/time, 2 times/day, plus berberine placebo tablets, 0.1 g/tablet, 5 tablets/time, 2 times/day. Bifidobacterium capsules were taken after meals and berberine tablets were taken before meals. After the sample testing was finished, 1) Chi-Squared test and t-test were used to evaluate the intergroup balance of the baseline data including the demographic characteristics and pre-treatment indicators, wherein the baseline data referred to those collected at the second visit, before the formal administration, the data collected at the first visit on the enrollment stage were used instead if the data at the second visit was lacking; 2) two-way disordered CM-CH11, Kruska-Wilcox test, etc. were used for analysis and intergroup comparison of pre- and post-treatment indicators such as fasting plasma glucose (FPG), HbA1c, plasma glucose at 2 hours post OGTT (2-h PPG), blood pressure, blood lipids, body weight and BMI; 3) adverse events and hypoglycemia events were described in terms of the type, frequency and relevance with the drugs, for safety evaluation. […]

[2] = tested on: pre-diabetic and type 2 diabetes mellitus patients; test: Clinical trial: venous plasma glucose at 2 hours post OGTT (2-h PPG); format: in vivo, human; conditions: for Effect on 2 h-PPG (in words) / Post-treatment 2-h PPG - pre-treatment 2-h PPG, mean value / Post-treatment 2-h PPG <10.0 mmol/L, Yes-N (%): 16 weeks of treatment; for Effect on 2 h-PPG (in words): Kruskal-Wilcox test; for Post-treatment 2-h PPG, mean value: after 16 weeks of treatment; for Pre-treatment 2-h PPG, mean value: baseline before treatment
Procedure: From June 2015 to October 2018, a double-blind, randomized, and parallel-controlled trial, studying the effects of the combined use of Bifidobacterium and berberine on pre-diabetic and type 2 diabetes mellitus patients, was conducted in 10 research centers in Xi'an, Yan'an and Shangluo of Shaanxi province, etc., including the First Affiliated Hospital of the Fourth Military Medical University. The trial included an enrollment stage of 2 weeks and a treatment stage of 16 weeks. After passing the first visit 1 (see V1 in Table 1), the subjects entered the enrollment stage, i.e., 2 weeks of lifestyle intervention, followed by a re-screening (see V2 in Table 1). The subjects were subjected to a 16-week course of treatment after passing the screening. See Table 1 for the detailed screening parameters. After the enrollment stage, the baseline data of the 300 successfully enrolled subjects were collected. Meanwhile, the subjects started to receive lifestyle guidance, and were randomly divided into four groups for 16 weeks of treatments. 1) Bifidobacterium group: the subjects were administered with Bifidobacterium capsules (Livzon Pharmaceutical Group Inc., batch no.: 20141013), 0.35 g/capsule, each capsule containing 50,000,000 viable bacteria (Bifidobacterium adolescentis DM8504), 2 capsules/time, 2 times/day, plus berberine placebo tablets (Northeast Pharma Group Shenyang First Pharma Co., Ltd., Lot no.: 20150101, containing 80.2% microcrystalline cellulose, 9.4% pregelatinized starch, 6.4% sodium carboxymethyl starch, 1% magnesium stearate, and 3% copovidone), 0.1 g/tablet, 5 tablets/time, 2 times/day. 2) Berberine group: the subjects were administered with berberine tablets (Northeast Pharma Group Shenyang First Pharma Co., Ltd., Lot no.: 130917, each tablet weighted 0.165 g and contained 0.1 g active berberine ingredient (berberine hydrochloride), with the same excipients as the placebo tablets), 5 tablets/time, 2 times/day, plus Bifidobacterium placebo capsules (Livzon Pharmaceutical Group Inc., Lot no.: 141001, specifically containing 0.348 g spray-dried lactose, and 0.002 g magnesium stearate), 0.35 g/capsule, 2 capsules/time, 2 times/day. 3) Combination Group: the subjects were administered with Bifidobacterium capsules, 0.35 g/capsule, each capsule containing 50,000,000 viable bacteria (B. adolescentis DM8504), 2 capsules/time, 2 times/day, plus berberine tablets, 0.1 g/tablet, each tablet containing 0.1 g active berberine ingredient (berberine hydrochloride), 5 tablets/time, 2 times/day. 4) Control group: the subjects were administered with Bifidobacteria placebo capsules, 0.35 g/capsule, 2 capsules/time, 2 times/day, plus berberine placebo tablets, 0.1 g/tablet, 5 tablets/time, 2 times/day. Bifidobacterium capsules were taken after meals and berberine tablets were taken before meals. Before the oral glucose tolerance test (OGTT), the subjects took regular diets for at least 3 days, with carbohydrates no less than 150 g. After 10-12 h fasting, initial blood samples were collected after the subjects emptied their bladders. Then the subjects drank a sugar solution made by dissolving 75 g anhydrous glucoses in 300 ml water over about 5 min, and were collected for blood samples after 30 min and 2 h. […]

Compound | Effect on fasting plasma glucose level (in words) [1] | Post-treatment FPG - pre-treatment FPG, mean value [1] [mmol/L] | Post-treatment FPG, mean value [1] [mmol/L] | Pre-treatment FPG, mean value [1] [mmol/L] | Effect on 2 h-PPG (in words) [2] | Post-treatment 2-h PPG - pre-treatment 2-h PPG, mean value ([2]; FAS) [mmol/L] | Post-treatment 2-h PPG <10.0 mmol/L, Yes-N (%) ([2]; FAS) | Post-treatment 2-h PPG, mean value ([2]; FAS) [mmol/L] | Pre-treatment 2-h PPG, mean value ([2]; FAS) [mmol/L] | Post-treatment 2-h PPG <10.0 mmol/L, Yes-N (%) ([2]; PPS)
COc1ccc2cc3[n+](cc2c1OC)CCc1cc2c(cc1-3)OCO2 [Berberine, berberine hydrochloride] | lowered the fasting plasma glucose level significantly | -0.2450 | 6.1300 | 6.4700 | good effect too | -1.1 | 35(71.43) N (%) | 9.84 | 11.2 | 24(64.86) N (%)
Bifidobacterium | no evident effect | 0.0282 | 6.4300 | 6.4000 | no such effect | -0.246 | 45(45.00) N (%) | 11.3 | 11.4 | 31(37.35) N (%)
